Ends that are not written are not given here.
Tests used:
NRP-1 [1] = settings: for inhibition of binding of VEGF-A165 and NRP-1: peptide 1000 nmol/L
Procedure: The whole operation was conducted on a Biacore S200 instrument. The recombinant VEGFR-2 or NRP-1 proteins were firstly immobilized on a CM5 chip by an amine-coupling reaction. VEGF-A165 ligands with gradient concentrations in the absence or presence of different peptides were then flowed over the CM5 chip. The binding of VEGF-A165 ligands to the immobilized recombinant VEGFR-2 or NRP-1 proteins led to an increase of the refractive index on the surface of the chip, which could be converted into the fluctuation of electrical signals in the response (RU).
The CM5 sensor chip was obtained from GE Healthcare Life Sciences (Uppsala, Sweden). Purified recombinant human VEGFR-2 and NRP-1 receptor proteins were purchased from R&D Systems (Minneapolis, MN, USA).
The SPR assay was performed using the Biacore S200 instrument (GE Healthcare, Uppsala, Sweden). Firstly, the CM5 sensor chip was activated with EDC/NHS. Then, the recombinant VEGFR-2 and NRP-1 proteins were immobilized on the surface of the sensor chip according to the operating instructions of amine coupling. VEGF-A165 was diluted to 8, 4, 2, 1, and 0.5 nmol/L in different concentrations of peptide solution dissolved by HBS-EP buffer (0, 0.016, 0.064, 0.256, and 1 μmol/L, respectively). The Kinetics/Affinity program was selected, and the automatic continuous injection program was set. The injection flow rate was 30 μL/min, the injection time was 120 s, and the dissociation time was 220 s. At the same time, zero-concentration injection wells and 0.5 nmol/L repeat-concentration injection wells of VEGF-A165 were set. At the end of each injection, the channels were flushed with glycine-HCl solution for 30 s until response values were returned to baseline.

NRP-1 [2] = test system: NRP-1; parameters: method as in 2 sources, ref 30 = [30]; PMID 33209022; doi:10.2147/IJN.S270208; 30. Lu L. Chen H. Wang L. Zhao L. Cheng Y. Wang A. Wang F. Zhang X. A Dual Receptor Targeting- and BBB Penetrating- Peptide Functionalized Polyethyleneimine Nanocomplex for Secretory Endostatin Gene D ||| ref 19-22 = [19]; PMID 10747021; doi:10.1093/emboj/19.7.1525; 19. Binétruy-Tournaire R. Demangel C. Malavaud B. Vassy R. Rouyre S. Kraemer M. Plouët J. Derbin C. Perret G. Mazié J.C. Identification of a peptide blocking vascular endothelial growth factor (VEGF)- || [20]; PMID 16959272; doi:10.1016/j.lfs.2006.08.005; 20. Starzec A. Vassy R. Martin A. Lecouvey M. Di Benedetto M. Crépin M. Perret G.Y. Antiangiogenic and antitumor activities of peptide inhibiting the vascular endothelial growth factor binding to neur || [21]; PMID 17983687; doi:10.1016/j.peptides.2007.09.013; 21. Starzec A. Ladam P. Vassy R. Badache S. Bouchemal N. Navaza A. du Penhoat C.H. Perret G.Y. Structure-function analysis of the antiangiogenic ATWLPPR peptide inhibiting VEGF (165) binding to neurop || [22]; PMID 27693752; doi:10.1016/j.jconrel.2016.09.035; 22. Ying M. Shen Q. Zhan C. Wei X. Gao J. Xie C. Yao B. Lu W. A stabilized peptide ligand for multifunctional glioma targeted drug delivery J. Control. Release 2016 243 86 98 10.1016/j.jconrel.2016.09; settings: cited from earlier work
Text: (§1) ATWLPPR (AT7), which was identified by a mutated phage lib ... || Intracranial delivery of therapeutic agents is primarily hindered by the BBB [24]. The intercellular tight junction caused by the BBB restricts the passive diffusion of almost all large-molecule and more than 98% of small-molecule drugs from peripheral blood circulation to the brain tissue.

VEGFR-2 = test system: VEGFR-2; parameters: method as in 2 sources, ref 30 = [30]; PMID 33209022; doi:10.2147/IJN.S270208; 30. Lu L. Chen H. Wang L. Zhao L. Cheng Y. Wang A. Wang F. Zhang X. A Dual Receptor Targeting- and BBB Penetrating- Peptide Functionalized Polyethyleneimine Nanocomplex for Secretory Endostatin Gene D ||| ref 19-22 = [19]; PMID 10747021; doi:10.1093/emboj/19.7.1525; 19. Binétruy-Tournaire R. Demangel C. Malavaud B. Vassy R. Rouyre S. Kraemer M. Plouët J. Derbin C. Perret G. Mazié J.C. Identification of a peptide blocking vascular endothelial growth factor (VEGF)- || [20]; PMID 16959272; doi:10.1016/j.lfs.2006.08.005; 20. Starzec A. Vassy R. Martin A. Lecouvey M. Di Benedetto M. Crépin M. Perret G.Y. Antiangiogenic and antitumor activities of peptide inhibiting the vascular endothelial growth factor binding to neur || [21]; PMID 17983687; doi:10.1016/j.peptides.2007.09.013; 21. Starzec A. Ladam P. Vassy R. Badache S. Bouchemal N. Navaza A. du Penhoat C.H. Perret G.Y. Structure-function analysis of the antiangiogenic ATWLPPR peptide inhibiting VEGF (165) binding to neurop || [22]; PMID 27693752; doi:10.1016/j.jconrel.2016.09.035; 22. Ying M. Shen Q. Zhan C. Wei X. Gao J. Xie C. Yao B. Lu W. A stabilized peptide ligand for multifunctional glioma targeted drug delivery J. Control. Release 2016 243 86 98 10.1016/j.jconrel.2016.09; settings: cited from earlier work
Text: as §1

[3] = test system: intracranial U87-mCherry-luc glioma; test: In vivo anti-glioma study (bioluminescence); parameters: species or system nude mice; settings: 20 mg/kg/day i.v. (tail vein), 11 days; days 4, 7, 11, 14; n = 5
Procedure: The orthotopic U87-mCherry-luc glioma-bearing nude mice were randomly assigned to 6 groups (n = 5) according to the bioluminescence intensity of glioma measured on day 4. […] The bioluminescence intensity was measured on days 4, 7, 11, and 14, respectively. Nude mice were weighed daily. On day 15, the mice were sacrificed, and the glioma-bearing brains were harvested. The brain tissues were fixed with 4.0% paraformaldehyde, embedded in paraffin, and cut into slices. The TUNEL staining and CD31 immunohistochemical staining were conducted according to standard histological procedures.

[4] = VEGF-A165 0.5-8 nmol/L, CM5 chip, HBS-EP

## CC(C)C[C@H](NC(=O)[C@H](Cc1c[nH]c2ccccc12)NC(=O)[C@@H](NC(=O)[C@H](C)NC(=O)[C@H](CS)NC(=O)[C@H](CCCNC(=N)N)NC(=O)[C@H](CCCNC(=N)N)NC(=O)[C@H](CCCNC(=N)N)NC(=O)[C@H](CCC(N)=O)NC(=O)[C@H](CCCNC(=N)N)NC(=O)[C@H](CCCNC(=N)N)NC(=O)[C@H](CCCCN)NC(=O)[C@H](CCCCN)NC(=O)[C@@H](N)CCCNC(=N)N)[C@@H](C)O)C(=O)N1CCC[C@H]1C(=O)N1CCC[C@H]1C(=O)N[C@@H](CCCNC(=N)N)C(=O)O [TAT-AT7]
NRP-1 [1]; SPR, NRP-1 compared with VEGFR-2
  inhibition of VEGF-A165 binding to NRP-1 relative to VEGFR-2: stronger inhibitory effect on the binding of VEGF-A165 to NRP-1
NRP-1 [1]; [4]
  inhibitory effect on VEGF-A165/NRP-1 binding, comparison between peptides: much higher than that of AT7 and TAT
  inhibition of binding of VEGF-A165 and NRP-1: completely inhibited the binding of VEGF-A165 and NRP-1
NRP-1 [1]; peptide 256 nmol/L, VEGF-A165 0.5-8 nmol/L, CM5 chip, HBS-EP
  binding curve of VEGF-A165 and NRP-1: tended to be a zero baseline
NRP-1 [2]; compared with TAT or AT7 alone
  affinity to NRP-1: higher affinity to VEGFR-2 and NRP-1
VEGFR-2; compared with TAT or AT7 alone
  affinity to VEGFR-2: higher affinity to VEGFR-2 and NRP-1
[3]
  glioma growth (bioluminescence): significantly suppressed glioma growth on days 11 and 14

## ATWLPPR [AT7, ATWLPPR]
NRP-1 [1]; [4]
  inhibition of binding of VEGF-A165 and NRP-1: displayed inhibitory effects on the binding of VEGF-A165 and NRP-1, but it did not completely inhibit the binding
NRP-1 [2]
  binding to NRP-1: able to bind to VEGFR-2 and NRP-1
VEGFR-2
  binding to VEGFR-2: able to bind to VEGFR-2 and NRP-1
[3]
  glioma growth (bioluminescence): no significant difference compared to the control group
